PMC4503722, “Novel Phenotypic Outcomes Identified for a Public Collection of Approved Drugs from a Publicly Accessible Panel of Assays” (PLoS ONE, 2015)

Experiments:
[1] = target: T1, hKDR (Homo sapiens, UniProt P35968); assay: Cerep LANCE kinase assay hKDR (S1 assay 32); type: biochemical; conditions: for hKDR LANCE IC50/EC50: assay number 32
T1 construct: purchased Cerep (LANCE kinase assay platform, contract assay)

[2] = target: T2, hJAK2 (Homo sapiens, UniProt O60674); assay: Cerep LANCE kinase assay hJAK2 (S1 assay 33); type: biochemical; conditions: for hJAK2 LANCE IC50/EC50: assay number 33
T2 construct: purchased Cerep (LANCE kinase assay platform, contract assay)
T2 sequence (O60674 whole entry): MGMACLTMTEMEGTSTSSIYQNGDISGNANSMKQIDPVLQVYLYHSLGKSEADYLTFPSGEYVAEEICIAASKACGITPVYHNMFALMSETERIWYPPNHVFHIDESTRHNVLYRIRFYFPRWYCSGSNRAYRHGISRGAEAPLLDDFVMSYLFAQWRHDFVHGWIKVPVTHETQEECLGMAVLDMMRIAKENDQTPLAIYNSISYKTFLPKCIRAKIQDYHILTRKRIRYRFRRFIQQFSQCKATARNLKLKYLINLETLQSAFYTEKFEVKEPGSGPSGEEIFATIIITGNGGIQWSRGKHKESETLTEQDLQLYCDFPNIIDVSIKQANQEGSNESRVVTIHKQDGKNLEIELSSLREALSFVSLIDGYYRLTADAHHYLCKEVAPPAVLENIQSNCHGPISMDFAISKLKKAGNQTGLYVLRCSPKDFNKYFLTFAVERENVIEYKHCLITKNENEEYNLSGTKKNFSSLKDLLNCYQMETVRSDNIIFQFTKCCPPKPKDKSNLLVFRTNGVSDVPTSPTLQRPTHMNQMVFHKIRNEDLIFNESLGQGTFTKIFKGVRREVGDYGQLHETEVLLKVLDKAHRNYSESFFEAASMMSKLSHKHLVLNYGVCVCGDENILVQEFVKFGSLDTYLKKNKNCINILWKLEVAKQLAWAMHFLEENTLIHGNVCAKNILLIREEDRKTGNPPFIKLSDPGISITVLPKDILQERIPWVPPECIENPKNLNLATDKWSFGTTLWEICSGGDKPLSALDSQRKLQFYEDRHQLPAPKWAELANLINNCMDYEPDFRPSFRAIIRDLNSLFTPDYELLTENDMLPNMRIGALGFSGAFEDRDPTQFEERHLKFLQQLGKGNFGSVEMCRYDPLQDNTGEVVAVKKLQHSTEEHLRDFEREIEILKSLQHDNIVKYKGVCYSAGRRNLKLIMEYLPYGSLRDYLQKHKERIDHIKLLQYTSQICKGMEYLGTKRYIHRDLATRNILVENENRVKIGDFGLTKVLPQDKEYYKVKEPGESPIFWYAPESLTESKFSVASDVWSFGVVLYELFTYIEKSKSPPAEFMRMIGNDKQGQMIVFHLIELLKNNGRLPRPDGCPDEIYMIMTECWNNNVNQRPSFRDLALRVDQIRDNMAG

[3] = system: ECFC/ADSC co-culture cell nuclei number
[4] = system: alkaline phosphatase (ALP) activity in C2C12 cells; type: cell-based; conditions: concentration response; for WntCondMedia_Alk Phos C2C12 IC50/EC50: assay number 6
[5] = target: T3, hGSK3b (Homo sapiens, UniProt P49841); assay: Cerep LANCE kinase assay hGSK3b (S1 assay 34); type: biochemical; conditions: for hGSK3b LANCE IC50/EC50: assay number 34
T3 construct: purchased Cerep (LANCE kinase assay platform, contract assay)
T3 sequence (P49841 whole entry): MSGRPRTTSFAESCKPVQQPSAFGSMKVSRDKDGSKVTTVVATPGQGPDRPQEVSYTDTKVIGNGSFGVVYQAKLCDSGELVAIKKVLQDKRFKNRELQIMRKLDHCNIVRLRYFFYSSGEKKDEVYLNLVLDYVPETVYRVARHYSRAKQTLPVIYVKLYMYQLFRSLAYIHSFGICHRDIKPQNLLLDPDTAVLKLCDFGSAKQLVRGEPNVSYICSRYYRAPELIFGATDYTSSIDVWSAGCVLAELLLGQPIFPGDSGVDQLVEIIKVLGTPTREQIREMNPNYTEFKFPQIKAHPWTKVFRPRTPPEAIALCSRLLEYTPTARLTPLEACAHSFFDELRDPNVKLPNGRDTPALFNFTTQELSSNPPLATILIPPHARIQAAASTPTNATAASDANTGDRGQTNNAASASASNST

[6] = target: T4, hp70S6K1 (RPS6KB1) (Homo sapiens, UniProt P23443); assay: Cerep LANCE kinase assay hp70S6K1 (S1 assay 31); type: biochemical; conditions: for hp70S6K1 LANCE IC50/EC50: assay number 31
T4 construct: purchased Cerep (LANCE kinase assay platform, contract assay)
T4 sequence (P23443 whole entry): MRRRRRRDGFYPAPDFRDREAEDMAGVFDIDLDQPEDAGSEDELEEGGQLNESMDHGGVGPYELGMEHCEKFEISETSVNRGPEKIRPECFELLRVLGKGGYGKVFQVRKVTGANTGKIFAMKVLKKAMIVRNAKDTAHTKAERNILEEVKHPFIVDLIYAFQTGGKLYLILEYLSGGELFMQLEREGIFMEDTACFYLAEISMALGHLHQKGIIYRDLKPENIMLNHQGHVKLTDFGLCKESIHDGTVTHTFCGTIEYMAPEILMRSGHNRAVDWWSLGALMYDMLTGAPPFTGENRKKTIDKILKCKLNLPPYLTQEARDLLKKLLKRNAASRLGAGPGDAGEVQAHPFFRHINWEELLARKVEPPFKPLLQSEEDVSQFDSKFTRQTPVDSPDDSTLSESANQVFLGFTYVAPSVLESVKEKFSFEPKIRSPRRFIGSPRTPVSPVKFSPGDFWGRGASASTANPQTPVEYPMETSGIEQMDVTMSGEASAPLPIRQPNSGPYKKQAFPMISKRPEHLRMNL

[7] = system: HeLa cells; assay: cells; type: cell-based; conditions: for Hela CellCycMod PI 2N IC50/EC50: assay number 14; for Hela CellCycMod PI 4N IC50/EC50: assay number 16; for Hela CellCycMod PI MI IC50/EC50: assay number 17; for Hela CellCycMod PI Cell Number IC50/EC50: assay number 18
[8] = target: T5, hFLT3 (Homo sapiens, UniProt P36888); assay: Cerep LANCE kinase assay hFLT3 (S1 assay 35); type: biochemical; conditions: for hFLT3 LANCE IC50/EC50: assay number 35
T5 construct: purchased Cerep (LANCE kinase assay platform, contract assay)
T5 sequence (P36888 27-993): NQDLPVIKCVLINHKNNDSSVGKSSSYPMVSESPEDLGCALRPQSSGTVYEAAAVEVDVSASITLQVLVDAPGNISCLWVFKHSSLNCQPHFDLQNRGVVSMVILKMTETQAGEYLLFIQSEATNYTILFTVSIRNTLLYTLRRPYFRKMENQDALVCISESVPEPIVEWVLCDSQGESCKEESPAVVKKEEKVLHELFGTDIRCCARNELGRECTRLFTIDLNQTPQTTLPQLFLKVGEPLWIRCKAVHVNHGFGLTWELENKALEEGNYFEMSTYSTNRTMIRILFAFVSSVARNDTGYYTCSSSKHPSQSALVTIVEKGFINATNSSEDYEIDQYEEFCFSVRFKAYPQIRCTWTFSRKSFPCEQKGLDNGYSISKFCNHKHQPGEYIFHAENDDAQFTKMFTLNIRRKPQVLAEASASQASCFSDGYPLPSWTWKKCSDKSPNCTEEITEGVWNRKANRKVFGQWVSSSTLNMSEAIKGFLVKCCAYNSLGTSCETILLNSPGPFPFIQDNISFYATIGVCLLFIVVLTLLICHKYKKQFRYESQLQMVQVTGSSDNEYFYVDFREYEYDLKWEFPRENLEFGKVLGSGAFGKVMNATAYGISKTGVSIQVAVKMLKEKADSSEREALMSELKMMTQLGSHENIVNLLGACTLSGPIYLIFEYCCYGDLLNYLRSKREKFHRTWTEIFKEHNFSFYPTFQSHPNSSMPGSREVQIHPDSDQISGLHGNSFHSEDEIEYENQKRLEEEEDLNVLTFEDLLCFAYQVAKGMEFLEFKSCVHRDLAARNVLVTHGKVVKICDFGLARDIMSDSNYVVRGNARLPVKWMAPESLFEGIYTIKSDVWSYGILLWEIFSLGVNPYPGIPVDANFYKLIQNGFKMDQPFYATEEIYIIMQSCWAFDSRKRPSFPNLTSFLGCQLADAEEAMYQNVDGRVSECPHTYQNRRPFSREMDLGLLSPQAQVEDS

[9] = system: nuclear β-catenin in C2C12 cells; assay: cells; type: cell-based; conditions: concentration response; for WntCondMedia_bCatenin C2C12 IC50/EC50: assay number 5
[10] = system: endothelial tube formation in co-cultures of ECFCs and ADSCs treated with VEGF; assay: cells; type: cell-based, human

T1 sequence (P35968 20-1356): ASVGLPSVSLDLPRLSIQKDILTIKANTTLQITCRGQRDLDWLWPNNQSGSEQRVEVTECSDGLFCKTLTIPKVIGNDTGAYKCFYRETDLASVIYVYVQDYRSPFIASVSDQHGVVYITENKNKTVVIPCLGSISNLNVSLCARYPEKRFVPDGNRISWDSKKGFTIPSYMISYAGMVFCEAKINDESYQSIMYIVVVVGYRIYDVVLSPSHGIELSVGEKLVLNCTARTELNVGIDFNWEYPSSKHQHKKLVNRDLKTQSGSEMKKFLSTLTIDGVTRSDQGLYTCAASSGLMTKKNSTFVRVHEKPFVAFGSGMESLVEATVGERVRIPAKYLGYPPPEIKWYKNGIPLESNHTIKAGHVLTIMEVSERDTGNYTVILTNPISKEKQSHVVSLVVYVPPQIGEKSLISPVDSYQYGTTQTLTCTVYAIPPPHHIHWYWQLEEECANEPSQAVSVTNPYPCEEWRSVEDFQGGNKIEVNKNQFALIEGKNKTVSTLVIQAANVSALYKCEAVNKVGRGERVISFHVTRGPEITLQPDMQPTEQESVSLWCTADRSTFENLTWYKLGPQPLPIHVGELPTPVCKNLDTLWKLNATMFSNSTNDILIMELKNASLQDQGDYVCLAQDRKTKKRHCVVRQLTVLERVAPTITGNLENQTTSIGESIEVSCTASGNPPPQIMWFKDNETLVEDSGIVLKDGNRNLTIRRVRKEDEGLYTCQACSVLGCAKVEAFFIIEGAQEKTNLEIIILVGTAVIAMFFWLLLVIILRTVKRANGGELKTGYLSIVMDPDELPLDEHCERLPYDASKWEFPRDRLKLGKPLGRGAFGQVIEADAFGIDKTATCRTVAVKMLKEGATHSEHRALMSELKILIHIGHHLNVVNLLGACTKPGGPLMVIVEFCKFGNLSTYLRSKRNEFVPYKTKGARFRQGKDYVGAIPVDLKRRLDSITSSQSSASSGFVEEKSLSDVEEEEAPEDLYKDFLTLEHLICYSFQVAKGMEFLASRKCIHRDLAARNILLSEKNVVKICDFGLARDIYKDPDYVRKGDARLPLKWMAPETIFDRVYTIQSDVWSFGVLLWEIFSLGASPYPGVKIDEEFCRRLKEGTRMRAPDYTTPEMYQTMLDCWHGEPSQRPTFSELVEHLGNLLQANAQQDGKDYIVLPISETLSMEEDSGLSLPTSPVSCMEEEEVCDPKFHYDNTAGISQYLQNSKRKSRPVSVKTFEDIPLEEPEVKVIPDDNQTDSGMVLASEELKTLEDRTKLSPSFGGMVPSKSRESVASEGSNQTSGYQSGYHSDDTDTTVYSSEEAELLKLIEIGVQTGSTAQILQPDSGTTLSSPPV

Compound | hKDR LANCE IC50/EC50 [1] [µM] | hJAK2 LANCE IC50/EC50 [2] [µM] | VEGF_ADSC\ECFC Angio Hoechst NucArea IC50/EC50 [3] [µM] | WntCondMedia_Alk Phos C2C12 IC50/EC50 [4] [µM] | hGSK3b LANCE IC50/EC50 [5] [µM] | hp70S6K1 LANCE IC50/EC50 [6] [µM] | Hela CellCycMod PI 2N IC50/EC50 ([7]; 2N) [µM] | Hela CellCycMod PI 4N IC50/EC50 ([7]; 4N) [µM] | Hela CellCycMod PI MI IC50/EC50 ([7]; MI) [µM] | Hela CellCycMod PI Cell Number IC50/EC50 [7] [µM] | hFLT3 LANCE IC50/EC50 [8] [µM] | WntCondMedia_bCatenin C2C12 IC50/EC50 [9] [µM] | VEGF_ADSC\ECFC Angio CD31 TubeArea IC50/EC50 [10] [µM] | also measured
Cc1cc(O)c2ccccc2c1O [NCGC00253592-01] | 18.36 | > 20 | 9.854 | 1.7548 | 19.11 | > 20 | > 10 | > 10 | > 10 | 2.4571 | > 20 | 4.3946 | 4.8933 | Hela CellCycMod PI S Phase IC50/EC50 ([7]; assay number 15, S phase): > 10 µM
COC(=O)c1nc(Cl)c(Cl)nc1N [NCGC00253704-01] |  |  |  |  |  |  |  |  |  |  |  |  |  | IC50/EC50, hKDR LANCE (assay number 32) [1]: > 20 µM; IC50/EC50, hJAK2 LANCE (assay number 33) [2]: > 20 µM; IC50/EC50, VEGF_ADSC\ECFC Angio Hoechst NucArea (assay number 3) [3]: 6.796 µM; IC50/EC50, WntCondMedia_Alk Phos C2C12 (assay number 6) [4]: 0.1565 µM; IC50/EC50, hGSK3b LANCE (assay number 34) [5]: > 20 µM; IC50/EC50, hp70S6K1 LANCE (assay number 31) [6]: > 20 µM; IC50/EC50, Hela CellCycMod PI 2N (assay number 14) ([7]; 2N): 0.3341 µM; IC50/EC50, Hela CellCycMod PI 4N (assay number 16) ([7]; 4N): 0.5115 µM; IC50/EC50, Hela CellCycMod PI Cell Number (assay number 18) ([7]; Cell Number): 0.4075 µM; IC50/EC50, Hela CellCycMod PI MI (assay number 17) ([7]; MI): 0.8681 µM; IC50/EC50, Hela CellCycMod PI S Phase (assay number 15) ([7]; S Phase): > 10 µM; IC50/EC50, hFLT3 LANCE (assay number 35) [8]: 2.86 µM; IC50/EC50, WntCondMedia_bCatenin C2C12 (assay number 5) [9]: 0.3085 µM; IC50/EC50, VEGF_ADSC\ECFC Angio CD31 TubeArea (assay number 2) [10]: 0.8652 µM
Cc1ccccc1C(=O)Nc1ccc(C(=O)N2CCCC(N(C)C)c3ccccc32)cc1 (stereo not shown) [NCGC00262931-01] | > 20 | > 20 | > 10 | 9.9815 | > 20 | > 20 | > 10 | > 10 | 3.4063 | 2.9147 | > 20 | 4.5593 | > 10 | 
CC[C@]1(O)C[C@H]2CN(CCc3c([nH]c4ccccc34)[C@@](C(=O)OC)(c3cc4c(cc3OC)N(C=O)[C@H]3[C@@](O)(C(=O)OC)[C@H](OC(C)=O)[C@]5(CC)C=CCN6CC[C@]43[C@@H]65)C2)C1 [NCGC00263543-01] | > 20 | > 20 | > 10 | 0.0051 | > 20 | > 20 | 0.0062 | 0.0059 | 0.0061 | 0.0065 | > 20 | 0.004 | 0.0065 | 
CC[C@@H]([C@H](C)O)n1ncn(-c2ccc(N3CCN(c4ccc(OC[C@@H]5CO[C@@](Cn6cncn6)(c6ccc(F)cc6F)C5)cc4)CC3)cc2)c1=O [NCGC00274060-01] | > 20 | > 20 | > 10 | 1.6342 | > 20 | > 20 | > 10 | > 10 | > 10 | > 10 | > 20 | 5.2923 | 6.461 | 
